In the supplement of paper PMC10307832:

Experiments:
Assay in all cases: relative viability (nuclei count vs DMSO), 5 days (fraction); higher = more cells survive
[1] = compound: CC1(C)CCC(CN2CCN(c3ccc(C(=O)NS(=O)(=O)c4ccc(NCC5CCOCC5)c([N+](=O)[O-])c4)c(Oc4cnc5[nH]ccc5c4)c3)CC2)=C(c2ccc(Cl)cc2)C1 [Venetoclax] + CC(=O)Nc1cccc(-n2c(=O)n(C3CC3)c(=O)c3c(Nc4ccc(I)cc4F)n(C)c(=O)c(C)c32)c1 [Trametinib] (partner 0.02 µM)
Procedure, shortened: (§1)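 Relative viability was taken as the ratio of nuclei in treated wells to nuclei in vehicle wells. Lung cancer cell lines in 1536-well plates received compounds by pin tool one day after seeding, either one drug alone or a fixed anchor-drug dose plus five library-drug doses (not always all listed) in √10 steps. Nuclei were counted on 4× images after 5 days of treatment, and values are medians of duplicate plates.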

[2] = compound: CC1(C)CCC(CN2CCN(c3ccc(C(=O)NS(=O)(=O)c4ccc(NCC5CCOCC5)c([N+](=O)[O-])c4)c(Oc4cnc5[nH]ccc5c4)c3)CC2)=C(c2ccc(Cl)cc2)C1 [Venetoclax] + CC(=O)c1c(C)c2cnc(Nc3ccc(N4CCNCC4)cn3)nc2n(C2CCCC2)c1=O [Palbociclib] (partner 0.5 µM)
Procedure, shortened: as §1

[3] = compound: CC1(C)CCC(CN2CCN(c3ccc(C(=O)NS(=O)(=O)c4ccc(NCC5CCOCC5)c([N+](=O)[O-])c4)c(Oc4cnc5[nH]ccc5c4)c3)CC2)=C(c2ccc(Cl)cc2)C1 [Venetoclax] + CC1(C)CCC(c2ccc(Cl)cc2)=C(CN2CCN(c3ccc(C(=O)NS(=O)(=O)c4ccc(N[C@H](CCN5CCOCC5)CSc5ccccc5)c(S(=O)(=O)C(F)(F)F)c4)cc3)CC2)C1 [Navitoclax] (partner 0.5 µM)
Procedure, shortened: as §1

[4] = compound: CC1(C)CCC(CN2CCN(c3ccc(C(=O)NS(=O)(=O)c4ccc(NCC5CCOCC5)c([N+](=O)[O-])c4)c(Oc4cnc5[nH]ccc5c4)c3)CC2)=C(c2ccc(Cl)cc2)C1 [Venetoclax] + C[C@]1(O)C[C@@H](c2nc(-c3ccc4ccc(-c5ccccc5)nc4c3)c3c(N)nccn32)C1 [Linsitinib] (partner 1 µM)
Procedure, shortened: as §1

Cell Line	relative viability ([1]; first compound 0.01 µM)	relative viability ([1]; first compound 0.03162 µM)	relative viability ([1]; first compound 0.1 µM)	relative viability ([1]; first compound 0.3162 µM)	relative viability ([1]; first compound 1 µM)	relative viability ([2]; first compound 0.01 µM)	relative viability ([2]; first compound 0.03162 µM)	relative viability ([2]; first compound 0.1 µM)	relative viability ([2]; first compound 0.3162 µM)	relative viability ([2]; first compound 1 µM)	relative viability ([3]; first compound 0.01 µM)	relative viability ([3]; first compound 0.03162 µM)	relative viability ([3]; first compound 0.1 µM)	relative viability ([3]; first compound 0.3162 µM)	relative viability ([3]; first compound 1 µM)	relative viability ([4]; first compound 0.01 µM)	relative viability ([4]; first compound 0.03162 µM)	relative viability ([4]; first compound 0.1 µM)	relative viability ([4]; first compound 0.3162 µM)	relative viability ([4]; first compound 1 µM)
HCC-827	0.522	0.593	0.538	0.521	0.535	0.526	0.627	0.463	0.442	0.534	1.02	0.996	1.04	1.04	1.01	0.997	0.973	1	0.978	0.87
NCI-H1915	0.253	0.319	0.295	0.318	0.299	0.477	0.558	0.541	0.524	0.495	0.763	0.79	0.733	0.788	0.779	1.02	1.11	0.982	1.07	1.03
NCI-H441	0.49	0.494	0.506	0.439	0.5	0.218	0.27	0.241	0.2	0.18	0.659	1.09	0.627	0.482	0.47	0.445	0.716	0.568	0.482	0.511
RERF-LC-KJ	0.705	0.851	0.873	0.886	0.795	1.05	1.08	0.988	1.03	1.03	0.994	0.961	0.794	1.08	0.89	0.792	0.899	0.904	0.883	0.85
NCI-H3122	0.259	0.197	0.211	0.227	0.29	0.249	0.226	0.185	0.18	0.204	1.11	1.03	1.03	1.01	1.01	1.08	1.02	0.969	1.06	1.06
NCI-H2347	0.327	0.288	0.254	0.298	0.267	0.41	0.388	0.322	0.483	0.414	0.793	0.876	0.807	0.855	0.819	0.93	0.953	1.01	0.958	0.95
NCI-H1651	0.88	0.89	0.804	0.838	0.926	0.529	0.537	0.536	0.545	0.528	1.06	0.964	0.964	1.06	1.09	0.926	1.13	0.938	0.962	0.995
NCI-H1793	0.334	0.46	0.367	0.335	0.419	0.296	0.304	0.306	0.327	0.27	0.375	0.454	0.287	0.461	0.382	0.905	1.04	0.692	0.818	0.778
EKVX	0.328	0.382	0.302	0.335	0.38	0.438	0.397	0.378	0.331	0.363	0.985	0.995	0.917	0.891	0.854	0.909	0.976	0.88	1.03	0.844
NCI-H1437	0.5	0.52	0.529	0.463	0.435	0.314	0.303	0.282	0.285	0.251	1.07	1.09	1.04	1.04	0.977	0.92	1.08	0.975	0.952	0.932
NCI-H23	0.441	0.427	0.365	0.346	0.346	0.514	0.598	0.495	0.491	0.413	0.869	0.774	0.774	0.82	0.704	0.646	0.648	0.527	0.467	0.533
EPLC-272H	0.287	0.284	0.238	0.259	0.263	0.351	0.298	0.345	0.338	0.318	–	1.23	1.12	1.14	1.05	–	1.31	1.06	1.45	1.07
H3255	0.586	0.648	0.603	0.517	0.582	0.34	0.316	0.315	0.33	0.296	0.54	0.573	0.433	0.618	0.498	1	0.953	0.809	0.873	0.915
SK-LU-1	0.585	0.512	0.522	0.507	0.587	0.405	0.403	0.35	0.403	0.372	0.502	0.994	0.945	0.729	0.804	1.01	1.25	0.998	1.04	1.13
NCI-H727	0.363	0.392	0.406	0.412	0.386	0.655	0.586	0.658	0.82	0.651	0.375	0.462	0.36	0.323	0.516	0.334	0.344	0.201	0.293	0.296
PC-3 [JPC-3]	0.656	0.685	0.678	0.683	0.666	0.561	0.533	0.583	0.558	0.517	0.832	0.785	0.78	0.829	0.744	0.922	1.01	0.977	0.938	0.949

Cell Line	relative viability ([1]; first compound 0.01 µM)	relative viability ([1]; first compound 0.03162 µM)	relative viability ([1]; first compound 0.1 µM)	relative viability ([1]; first compound 0.3162 µM)	relative viability ([1]; first compound 1 µM)	relative viability ([2]; first compound 0.01 µM)	relative viability ([2]; first compound 0.03162 µM)	relative viability ([2]; first compound 0.1 µM)	relative viability ([2]; first compound 0.3162 µM)	relative viability ([2]; first compound 1 µM)	relative viability ([3]; first compound 0.01 µM)	relative viability ([3]; first compound 0.03162 µM)	relative viability ([3]; first compound 0.1 µM)	relative viability ([3]; first compound 0.3162 µM)	relative viability ([3]; first compound 1 µM)	relative viability ([4]; first compound 0.01 µM)	relative viability ([4]; first compound 0.03162 µM)	relative viability ([4]; first compound 0.1 µM)	relative viability ([4]; first compound 0.3162 µM)	relative viability ([4]; first compound 1 µM)
COR-L 105	0.333	0.499	0.386	0.496	0.413	0.414	0.399	0.384	0.365	0.413	0.743	0.755	0.782	0.794	0.748	0.934	0.943	0.834	0.81	0.871
NCI-H322M	0.528	0.519	0.436	0.534	0.562	0.489	0.487	0.389	0.412	0.485	1.25	1.11	1.11	1.35	1.16	0.913	0.916	0.889	0.891	0.852
NCI-H1395	1.05	0.944	1.02	1.06	1.05	0.62	0.609	0.576	0.603	0.58	1.15	1.12	1.16	1.13	1.55	0.951	0.996	1.04	1.25	1.11
NCI-H838	0.559	0.522	0.524	0.491	0.488	0.236	0.212	0.217	0.208	0.2	1.21	1.14	1.1	1.11	1.11	1.11	1.03	1.01	1.03	0.938
NCI-H1993	0.509	0.518	0.506	0.591	0.535	0.643	0.652	0.717	0.616	0.541	0.971	0.904	0.944	0.962	0.891	0.73	0.651	0.739	0.775	0.749
CAL-12T	0.24	0.385	0.357	0.379	0.278	0.401	0.565	0.384	0.453	0.314	1.4	1.22	0.956	1.15	1.1	0.728	0.931	0.685	0.776	0.691
LCLC-97TM1	0.217	0.18	0.148	0.167	0.185	0.231	0.217	0.202	0.208	0.212	–	0.608	0.44	0.361	0.446	–	0.197	0.158	0.182	0.198
NCI-H1355	0.455	0.46	0.435	0.432	0.44	0.428	0.387	0.404	0.424	0.356	0.892	0.972	0.804	0.915	0.897	0.812	0.814	0.778	0.792	0.753
NCI-H1944	0.511	0.474	0.394	0.432	0.361	0.401	0.314	0.314	0.288	0.299	1.03	1.09	0.99	1.06	1.09	1.4	1.28	1.15	1.16	1.23
NCI-H2085	0.45	0.56	0.416	0.547	0.511	0.441	0.471	0.486	0.454	0.47	0.952	1.16	1.17	1.26	1.06	0.881	0.782	0.853	0.909	0.853
201T	0.675	0.699	0.713	0.682	0.696	0.364	0.353	0.321	0.331	0.334	1.17	1.24	1.27	1.19	1.21	0.986	1.01	1.03	1.03	1.01
NCI-H2405	0.769	0.603	0.584	0.646	0.591	0.52	0.533	0.531	0.529	0.513	0.865	1.02	–	0.941	0.91	0.931	0.955	–	0.989	0.9
LXF-289	0.716	0.692	0.629	0.625	0.575	0.624	0.592	0.631	0.556	0.552	0.926	0.988	0.952	0.868	0.829	0.973	0.955	0.895	0.932	0.856
LC-2-ad	0.927	0.84	0.898	0.874	0.845	0.456	0.532	0.465	0.491	0.508	0.441	0.4	0.531	0.52	0.466	0.807	0.904	0.785	0.848	0.798
NCI-H2126	0.544	0.618	0.538	0.566	0.521	0.368	0.34	0.363	0.374	0.336	0.886	0.853	0.851	0.808	0.855	0.792	0.733	0.695	0.741	0.689
